According to article PMC10050424, “Structural basis of the substrate recognition and inhibition mechanism of Plasmodium falciparum nucleoside transporter PfENT1” (Nature Communications, 2023):
pKd: −log10 of the molar value. “And” between values parts separate entries of the source, which are not always exact repeats. Equal values may be shown once.

Tests used:
[1] = molecular target: T1, PfENT1 (Plasmodium falciparum, UniProt Q8IDM6); test: cell-based; format: cell-based; details: uptake without competitor set as 100%, Fig. 1c; for remaining activity at 5000 µM: 0.5 h, read-out: Uptake of [3H]-inosine (Percentage of PfENT1 WT), competition by nonradioactive nucleoside/nucleobase 5 mM, 30 min, 30 °C; for Uptake of [3H]-inosine (Percentage of PfENT1 WT): competition by nonradioactive nucleoside/nucleobase 5 mM, 30 min, 30 °C
T1 construct: expressed in transfected cells; host or cells: S. cerevisiae BY4741, FUI1 deleted, PfENT1 knock-in under the TEF1 promoter
T1 sequence (Q8IDM6 whole entry): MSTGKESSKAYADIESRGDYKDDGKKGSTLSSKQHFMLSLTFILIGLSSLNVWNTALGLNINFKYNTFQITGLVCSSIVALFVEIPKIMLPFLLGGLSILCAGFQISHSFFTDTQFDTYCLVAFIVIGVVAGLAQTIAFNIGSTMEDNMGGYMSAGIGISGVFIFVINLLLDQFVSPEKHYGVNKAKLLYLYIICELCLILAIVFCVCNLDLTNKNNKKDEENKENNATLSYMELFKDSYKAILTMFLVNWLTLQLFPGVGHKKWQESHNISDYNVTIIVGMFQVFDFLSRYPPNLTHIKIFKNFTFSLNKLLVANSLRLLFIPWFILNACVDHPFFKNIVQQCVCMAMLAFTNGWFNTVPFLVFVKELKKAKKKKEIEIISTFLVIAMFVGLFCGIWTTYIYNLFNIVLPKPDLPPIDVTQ
Experimental: The S. cerevisiae strain (ATCC, #201388) BY4741 (MATa his3Δ1 leu2Δ0 met15Δ0 ura3Δ0) was used as the starting yeast strain. Yeast strains were cultured in YPD medium (20 g/L peptone, 10 g/L yeast extract, and 20 g/L dextrose). The antibiotic G418 was supplemented at a concentration of 250 μg/mL to select strains carrying the KanMX marker. E. coli DH5α was used for subcloning.
Codon-optimized PfENT1 (for expression in yeast) was synthesized by Sangon Biotech. The carboxyl terminus of PfENT1 was HA-tagged through PCR. The TEF1p promoter and PGK1t terminator were amplified from BY4741 genomic DNA. Overlap PCR was applied to generate the gene overexpression cassette of PfENT1 (TEF1p promoter-PfENT1-PGK1t terminator). The two 600-bp homologous arms corresponding to the upstream and downstream regions of the FUI1 gene were amplified from BY4741 genomic DNA. The gene cassette of the ‘TEF1p promoter-PfENT1-PGK1t terminator’ together with the two homologous arms was cloned into the PUC19 plasmid through Gibson assembly, generating the final plasmid PUC19: PfENT1. PfENT1 mutations were generated using point mutation and verified by Sanger sequencing. The spacer targeting the FUI1 gene (5ʹ-[…]-3ʹ) was cloned into the pCas-BsaI plasmid to generate the pCas-FUI1 plasmid as described previously.
To obtain fui1Δ and PfENT1 (or its mutations) overexpression in the S. cerevisiae strain, 1 μg pCas-FUI1 plasmid and 15 μg PUC19:PfENT1 were transformed into yeast using the LiAc/ssDNA/PEG method. Then, the strains were plated on a YPD plate supplemented with G418. Clones were screened using PCR and finally verified through Sanger sequencing.
Cells were grown overnight in YPD medium to mid-log phase and harvested by centrifugation at 3000 × g for 5 min. Cells were washed three times in 2% glucose. The yeast pellets were resuspended in uptake assay buffer (25 mM Tris-HCl 8.0,150 mM NaCl, 2% glucose) to a final concentration of 2 × 10^8 cells mL^–1. The uptake assay was initiated by combining 100 μL of prewarmed (30 °C) cells and 100 μL uptake assay buffer mixture: 25 mM Tris-HCl 8.0, 150 mM NaCl, 2% glucose, 200 nM [^3H] Inosine ([8-^3H] inosine; 20 Ci mmol^–1, American Radiolabeled Chemicals). Cells were removed onto a membrane filter at the appropriate times to generate the time course. After washing by vacuum filtration with 2 ml ice-cold 2% glucose, the radioactivity retained on the filter was incubated with 1 mL of ULTIMA GOLD scintillation fluid (Perkin Elmer, 77-15311). Counts were measured using a liquid scintillation analyzer (Perkin Elmer, Tri-Carb 5110TR).
For competition assays, the indicated nucleosides and nucleobase were added into the external uptake assay buffer (25 mM Tris-HCl 8.0, 150 mM NaCl, and 2% glucose) to a final concentration of 5 mM, and the transport reaction was stopped at 30 min. The reading of the competition assays was normalized against the one without a competitor, which had the uptake of radiolabeled inosine set as 100%. All uptake assays were performed at 30 °C and repeated three times. Error bars represent the s.d. The final result was analyzed in the GraphPad Prism 8 software ([…]).

[2] = molecular target: T2, PfENT1WT (Plasmodium falciparum, UniProt Q8IDM6); test: biochemical; format: binding
T2 construct: 10xHis (N); made in house; host or cells: Sf9 insect cells (baculovirus)
T2 sequence (Q8IDM6 whole entry): as above
Experimental: For the in vitro binding assay, Sf9 cells were solubilized in lysis buffer containing 2% (w/v) n-dodecyl-β-D-maltopyranoside (DDM, Anatrace) and protease inhibitor cocktail (0.8 μM aprotinin, 2 μM pepstatin, and 5 μg/ml leupeptin) at 4 °C for 2 h. The soluble supernatant was collected via centrifugation and incubated with Ni-NTA resin (QIAGEN) at 4 °C for 1 h. The resin was washed and eluted using lysis buffer containing 0.05% (w/v) DDM and 30 mM/300 mM imidazole. The protein was further purified by size-exclusion chromatography (Superdex 200 Increase 10/300; GE Healthcare) in buffer containing 25 mM MES (pH 6.0), 150 mM NaCl, and 0.05% (w/v) DDM. The peak fractions were pooled and concentrated to 10~50 μM for the nucleoside-binding assay.
The binding affinity between wild-type and mutant PfENT1 with nucleosides and GSK4 was measured using a Micro-Cal ITC200 (Malvern). All proteins were prepared in 25 mM MES (pH 6.0), 150 mM NaCl, and 0.05% (w/v) DDM. Nucleosides (5~10 mM) and GSK4 (100-200 μM) dissolved in the same buffer were titrated against 20–50 μM PfENT1 proteins at 25 °C. PEAQ-ITC analysis software (MicroCal) was employed to analyze the data. All titrations were repeated three times.

[3] = ITC, 25 °C, pH 6.0, mean ± SD (n = 3), Fig. 1a and text

SMILES	remaining activity at 5000 µM [1]	Uptake of [3H]-inosine (Percentage of PfENT1 WT) [1]	pKd ([2]; Kd, Mean and Mean ± SD, source data Figure 1a)	pKd ([2]; Kd, N=3 (individual experiments), source data Figure 1a)	pKd ([2]; binding affinity (Kd), ITC, 25 °C, pH 6.0, mean ± SD (n = 3), Fig. 1a and text)	binding affinity (Kd) [2, 3]	Uptake of [3H]-inosine (Percentage of PfENT1 WT) ([1]; listed as thymidine)
Nc1ncnc2c1ncn2[C@@H]1O[C@H](CO)[C@@H](O)[C@H]1O [Adenosine, adenosine]	18%	relatively lower than that of inosine and guanosine					
Nc1nc2c(ncn2[C@@H]2O[C@H](CO)[C@@H](O)[C@H]2O)c(=O)[nH]1 [Guanosine, guanosine]	10%	abolished	3.73	3.76 and 3.75 and 3.68	~3.73 and 3.73		
Cc1cn([C@H]2C[C@H](O)[C@@H](CO)O2)c(=O)[nH]c1=O [Thymidine, thymidine]	42%	41%				undetectable	partially reduce inosine uptake
Nc1ccn([C@@H]2O[C@H](CO)[C@@H](O)[C@H]2O)c(=O)n1 [Cytidine, cytidine]		did not influence inosine uptake				undetectable	
O=c1[nH]cnc2nc[nH]c12 [Hypoxanthine, hypoxanthine]	23%	partial inhibition				undetectable	
O=c1ccn([C@@H]2O[C@H](CO)[C@@H](O)[C@H]2O)c(=O)[nH]1 [Uridine, uridine]	81%	partially reduce inosine uptake				undetectable	
